Measurements taken from BigSolDB 2.1.

CC(C)(C)c1ccc2c(c1)C(=O)c1ccccc1C2=O
solubility (mole fraction)
Details	303.15 K	308.15 K	313.15 K	318.15 K	323.15 K	333.15 K
in 2,6-dimethyl-4-heptanol	0.0245	0.0351	0.0461	0.0635	0.0998	0.21
in mesitylene	0.282	0.317	0.345	0.386	0.443	0.604
in trioctyl phosphate	0.169	0.185	0.209	0.254	0.296	0.39
